Molecular target: T1, Tyrosine-protein kinase SYK (Homo sapiens, UniProt P43405)
Assay: Inhibition of recombinant Syk

For `CCOc1cccc(Nc2nc(NCCN)ncc2C(N)=O)c1`, which IC50 is on record?
The IC50 was 81 nM.

For `c1ccn(CCOc2ccc(Nc3nccc(-c4nccs4)n3)cc2)c1`, which IC50 is on record?
Its IC50 is 500 nM.

How did the IC50 turn out when `CC(C)Oc1cccc(Nc2nc(NCCN)ncc2C(N)=O)c1` was run?
Its IC50 is 72 nM.

Which IC50 does the source give for `CN(C)CCN(C)c1ncc(C(N)=O)c(Nc2cccc(C(F)(F)F)c2)n1` here?
Its IC50 is 10000 nM.

`FC(F)(F)c1ccc(Nc2nccc(-c3nccs3)n2)cc1` was tested. Which IC50 did it give?
The IC50 was 500 nM.

How did the IC50 turn out when `COc1cc(Nc2nc(NC3CCCC[C@H]3N)n3cnnc3c2C(N)=O)cc(OC)c1` (stereo partly drawn) was run?
The IC50 was 3.7 nM.

How did the IC50 turn out when `CN(C)c1ccc(-c2cc3ncccc3c(NC(C)(C)CN)n2)cc1` was run?
Its IC50 is 310 nM.

With `Cc1cccc(Nc2nc(N[C@@H]3CCCC[C@@H]3N)ccc2C(N)=O)c1` as the molecule, how does the IC50 read?
The IC50 was 50 nM.

With `c1ccc(COc2ccc(Nc3nccc(-c4nccs4)n3)cc2)cc1` as the molecule, how does the IC50 read?
The IC50 was 1000 nM.

With `Cc1ncc(C(N)=O)c(Nc2cccc(C(F)(F)F)c2)n1` as the molecule, how does the IC50 read?
Its IC50 is 5000 nM.

With `c1ccc2cc(Nc3nccc(-c4nccs4)n3)ccc2c1` as the molecule, how does the IC50 read?
The IC50 was 2000 nM.

Which IC50 does the source give for `COc1cc(Nc2nc(NC3CCCC[C@H]3N)n3nc(C)nc3c2C(N)=O)cc(OC)c1` (stereo partly drawn) here?
The IC50 was 11.2 nM.

`COCCOc1ccc2c(Nc3cc(C)[nH]n3)nn(C(C)C)c(=O)c2c1` was tested. Which IC50 did it give?
The IC50 was 894 nM.

`Cc1cc(Nc2nccc(-c3nccs3)n2)cc(C(F)(F)F)c1` was tested. Which IC50 did it give?
Its IC50 is 110 nM.

For `N#Cc1cccc(Nc2nc(NCCN)ncc2C(N)=O)c1`, which IC50 is on record?
Its IC50 is 110 nM.

`Cc1cc(C)cc(Nc2nccc(-c3nc(C)cs3)n2)c1` was tested. Which IC50 did it give?
The IC50 was 56 nM.

For `Cc1cc(Nc2nn(CC3CCCNC3)c(=O)c3ccccc23)[nH]n1` (stereo not drawn), which IC50 is on record?
The IC50 was 6530 nM.

Which IC50 does the source give for `COc1cc(Nc2nc(N[C@@H]3CCCC[C@@H]3N)n3ncnc3c2C(N)=O)cc(OC)c1` here?
Its IC50 is 4 nM.

`N#C/C(=C\c1ccc(O)c(O)c1)C(N)=S` [TYRPHOSTIN 47] was tested. Which IC50 did it give?
Its IC50 is 38000 nM.

Which IC50 does the source give for `Cc1cc(Nc2nn(C(C)C)c(=O)c3cc(N4CCOCC4)ccc23)[nH]n1` here?
The IC50 was 1100 nM.

With `COc1cc(Nc2nc(NC3CCCCC[C@H]3N)n3ccnc3c2C(N)=O)cc(OC)c1` (stereo partly drawn) as the molecule, how does the IC50 read?
Its IC50 is 1.6 nM.

For `CCc1cccc(Nc2nc(NCCN)ncc2C(N)=O)c1`, which IC50 is on record?
Its IC50 is 53 nM.

Which IC50 does the source give for `Cc1cc(Nc2nn(C(C)C)c(=O)c3cc(N4CCN(C)CC4)ccc23)[nH]n1` here?
Its IC50 is 5360 nM.

`OCCCOc1cc(Nc2nccc(-c3nccs3)n2)cc(C(F)(F)F)c1` was tested. Which IC50 did it give?
The IC50 was 26 nM.

With `CC(C)c1cccc(Nc2nc(NCCN)ncc2C(N)=O)c1` as the molecule, how does the IC50 read?
The IC50 was 92 nM.

Which IC50 does the source give for `COc1cc(/C=C/[N+](=O)[O-])ccc1O` here?
The IC50 was 76000 nM.

Which IC50 does the source give for `c1cncc(Oc2cccc(Nc3nccc(-c4nccs4)n3)c2)c1` here?
The IC50 was 500 nM.

How did the IC50 turn out when `Cc1cc(C)cc(Nc2nc(N[C@H](CN)c3ccccc3)n3ccnc3c2C(N)=O)c1` was run?
The IC50 was 21 nM.

How did the IC50 turn out when `O=[N+]([O-])c1ccccc1COc1ccc(Nc2nccc(-c3nccs3)n2)cc1` was run?
The IC50 was 2000 nM.

For `c1cc(-c2nccs2)nc(Nc2ccc(OCC3CCCCC3)cc2)n1`, which IC50 is on record?
The IC50 was 2000 nM.

How did the IC50 turn out when `NCCNc1ncc(C(N)=O)c(Nc2ccccc2)n1` was run?
The IC50 was 280 nM.

`Cc1cc(Nc2nccc(-c3nc(C)c(CCO)s3)n2)cc(C(F)(F)F)c1` was tested. Which IC50 did it give?
Its IC50 is 22 nM.

For `NCCCNc1nc(-c2cccc(C(F)(F)F)c2)cc2ncccc12`, which IC50 is on record?
Its IC50 is 830 nM.

How did the IC50 turn out when `c1ccc(COc2cccc(Nc3nccc(-c4nccs4)n3)c2)cc1` was run?
The IC50 was 500 nM.

`c1cc(COc2ccc(Nc3nccc(-c4nccs4)n3)cc2)ccn1` was tested. Which IC50 did it give?
Its IC50 is 2000 nM.

With `COc1ccc(CNS(=O)(=O)c2ccc3c(c2)/C(=C/c2cn(C)c4ccc(OC)cc24)C(=O)N3)cc1` as the molecule, how does the IC50 read?
Its IC50 is 4000 nM.

How did the IC50 turn out when `COC(=O)c1ccc(COc2ccc(Nc3nccc(-c4nccs4)n3)cc2)cc1` was run?
The IC50 was 2000 nM.

For `CCc1cc(NCC(C)(C)N)n2nc(Nc3cc(OC)cc(OC)c3)c(C(N)=O)c2n1`, which IC50 is on record?
The IC50 was 3890 nM.

Which IC50 does the source give for `COc1cc(Nc2nc(NC3CCCC[C@H]3N)n3ncnc3c2C(N)=O)cc(OC)c1` (stereo partly drawn) here?
Its IC50 is 1 nM.

`COc1cc(/C=C/[N+](=O)[O-])ccc1OC(=O)c1ccccc1` was tested. Which IC50 did it give?
Its IC50 is 3800 nM.

Which IC50 does the source give for `Cc1c(/C=C2/C(=O)Nc3ccc(S(N)(=O)=O)cc32)c2ccccc2n1C` here?
The IC50 was 4000 nM.

How did the IC50 turn out when `NC(=O)c1cncnc1Nc1cccc(C(F)(F)F)c1` was run?
The IC50 was 5000 nM.

How did the IC50 turn out when `c1ccc(Oc2cccc(Nc3nccc(-c4nccs4)n3)c2)cc1` was run?
The IC50 was 1000 nM.

`Oc1ccc(Nc2nccc(-c3nccs3)n2)cc1` was tested. Which IC50 did it give?
Its IC50 is 500 nM.

`c1c[nH]c(-c2ccnc(Nc3ccc(Oc4ccc5c(c4)OCO5)cc3)n2)c1` was tested. Which IC50 did it give?
Its IC50 is 500 nM.

With `COC(=O)c1ccccc1-c1ccc(/C=C2/SC(=S)N(Cc3ccccc3)C2=O)o1` as the molecule, how does the IC50 read?
The IC50 was 4000 nM.

With `Nc1ccccc1COc1ccc(Nc2nccc(-c3nccs3)n2)cc1` as the molecule, how does the IC50 read?
The IC50 was 500 nM.

`Cc1cc(C)cc(Nc2nccc(-c3nc(C)c(CCO)s3)n2)c1` was tested. Which IC50 did it give?
The IC50 was 32 nM.

Which IC50 does the source give for `CS(=O)(=O)c1cccc(Oc2cccc(Nc3nccc(-c4nccs4)n3)c2)c1` here?
The IC50 was 500 nM.

Which IC50 does the source give for `COc1cc(Nc2nc(N[C@@H]3CCCC[C@@H]3N)n3cnnc3c2C(N)=O)cc(OC)c1` here?
Its IC50 is 9 nM.

Which IC50 does the source give for `Cc1ccc(C)c(Nc2nccc(-c3nccs3)n2)c1` here?
Its IC50 is 1820 nM.

With `Fc1ccc(Nc2nccc(-c3nccs3)n2)cc1` as the molecule, how does the IC50 read?
Its IC50 is 1000 nM.

For `Cc1cc(C)cc(Nc2nc(CC3CCCC[C@H]3N)n3ccnc3c2C(N)=O)c1` (stereo partly drawn), which IC50 is on record?
Its IC50 is 2.5 nM.

`NCCCNc1ncc(C(N)=O)c(Nc2cccc(C(F)(F)F)c2)n1` was tested. Which IC50 did it give?
Its IC50 is 230 nM.

`COc1c(C[C@@H](C)OC(=O)Oc2ccc(O)cc2)c2c3c(C[C@@H](C)OC(=O)c4ccccc4)c(OC)c(=O)c4c(O)cc(OC)c(c5c(OC)cc(O)c(c1=O)c52)c43` [CALPHOSTIN C] was tested. Which IC50 did it give?
Its IC50 is 1100 nM.

How did the IC50 turn out when `COc1cc(Nc2nc(NC3CCCC[C@H]3N)n3nc(-c4cccc(O)c4)nc3c2C(N)=O)cc(OC)c1` (stereo partly drawn) was run?
The IC50 was 7 nM.

Molecular target: T1, Tyrosine-protein kinase SYK
Assay: Inhibition of recombinant Syk at 10 uM

For `O=C1NC(=O)N(c2cccc(Cl)c2)C(=O)/C1=C\Nc1ccc(Cl)cc1[N+](=O)[O-]`, which inhibition is on record?
The inhibition was 51%.

With `COc1cccc2cc(C(N)=O)/c(=N/c3ccc(-c4ccccc4)cc3)oc12` as the molecule, how does the inhibition read?
The inhibition was 63%.

From ChEMBL document CHEMBL1138583, “Pharmacophore modeling study based on known spleen tyrosine kinase inhibitors together with virtual screening for identifying novel inhibitors” (Bioorg Med Chem Lett, 2009)
